Results reported in patent US20190119282A1, “IMIDAZOPYRIDAZINES USEFUL AS INHIBITORS OF THE PAR-2 SIGNALING PATHWAY” (Vertex Pharmaceuticals Incorporated, priority 2013, published 2019).

How the values were obtained:
[1] = target: T1, PAR2 (HT-29 cells, trypsin activation) (Homo sapiens, UniProt P55085); test: Ca FLIPR TETRA assay, ANTAGONIST mode, stimulation with 3.1 U/mL trypsin; type: cell-based; settings: HT-29 cells, antagonist mode, stimulation with 3.1 U/mL trypsin
T1 construct: host or cells: HT-29 cells
T1 sequence (P55085 26-397): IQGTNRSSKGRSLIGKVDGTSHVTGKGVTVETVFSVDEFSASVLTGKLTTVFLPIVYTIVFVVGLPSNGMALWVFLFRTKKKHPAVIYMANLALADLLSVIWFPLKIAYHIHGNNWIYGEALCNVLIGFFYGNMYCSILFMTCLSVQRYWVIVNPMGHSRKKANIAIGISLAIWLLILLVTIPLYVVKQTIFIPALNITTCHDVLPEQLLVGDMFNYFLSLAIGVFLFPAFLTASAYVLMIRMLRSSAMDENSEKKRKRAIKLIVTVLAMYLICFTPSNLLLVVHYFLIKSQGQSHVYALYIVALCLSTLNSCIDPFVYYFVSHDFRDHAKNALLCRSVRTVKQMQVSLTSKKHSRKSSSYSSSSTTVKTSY
Procedure, shortened: (§1)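 Antagonist-mode FLIPR Tetra Ca2+ readout: after 30 min r.t. compound pre-incubation, HT-29 cells are challenged with trypsin (3.1 U/mL final), SLIGKV (8 μM), thrombin (1 U/mL) or UTP (0.6 μM). Cells were plated overnight in 1% FBS medium and dye-loaded with Calcium 5; an initial read checks compound agonism.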

[2] = target: T2, PAR2 (HT-29 cells, SLIGKV activation) (Homo sapiens, UniProt P55085); test: Ca FLIPR TETRA assay, ANTAGONIST mode, stimulation with 8 μM SLIGKV; type: cell-based; settings: HT-29 cells, antagonist mode, stimulation with 8 μM SLIGKV
T2 construct: host or cells: HT-29 cells
T2 sequence (P55085 26-397): T1 sequence (P55085 26-397)
Procedure, shortened: as §1

[3] = test system: Thrombin-stimulated Ca2+ response in HT-29 cells; test: Ca FLIPR TETRA assay, ANTAGONIST mode, stimulation with 1 U/mL Thrombin; type: cell-based, human; settings: Homo sapiens; HT-29 cells, antagonist mode, stimulation with 1 U/mL Thrombin
Procedure, shortened: as §1

[4] = test system: UTP-stimulated Ca2+ response in HT-29 cells; test: Ca FLIPR TETRA assay, ANTAGONIST mode, stimulation with 0.6 μM UTP; type: cell-based, human; settings: Homo sapiens; HT-29 cells, antagonist mode, stimulation with 0.6 μM UTP
Procedure, shortened: as §1

IC50 [1] | IC50 [2] | IC50 [3] | IC50 [4] | Compound
5.9 nM | 5.6 nM | > 1000 nM | > 1000 nM | CC(C)c1cc(-c2ccc(F)cc2)nn2cc(C(=O)N3CCN(C(=O)c4cn[nH]c4)CC3(C)C)nc12 [Compound I-327]
2.8 nM | 5.9 nM | > 1000 nM | > 1000 nM | Cc1cc(-c2cc(C(C)(C)C)c3nc(C(=O)N4CCNC(=O)C4(C)C)cn3n2)ccc1F [Compound I-329]
1.4 nM | 1.7 nM | > 1000 nM | > 1000 nM | Cc1ccc(-c2cc(C(C)C)c3nc(C(=O)N4CCN(C(=O)c5cc(C)n[nH]5)CC4(C)C)cn3n2)cc1 [Compound I-330]
6.9 nM | 11.4 nM | > 1000 nM | > 1000 nM | Cc1ccc(-c2cc(C(C)C)c3nc(C(=O)N4CCN(C(=O)c5nc[nH]n5)CC4(C)C)cn3n2)cc1 [Compound I-331]
11.5 nM | 13.3 nM | > 1000 nM | > 1000 nM | Cc1ccc(-c2cc(C(C)C)c3nc(C(=O)N4CCN(C(=O)c5nnc(C)o5)CC4(C)C)cn3n2)cc1 [Compound I-332]
3.8 nM | 3.2 nM | > 1000 nM | > 1000 nM | Cc1ccc(-c2cc(C(C)C)c3nc(C(=O)N4CCN(C(=O)C5CC(C)(O)C5)CC4(C)C)cn3n2)cc1 (stereo not drawn) [Compound I-333]
4.8 nM | 4.6 nM | > 1000 nM | > 1000 nM | Cc1ccc(-c2cc(C(C)C)c3nc(C(=O)N4CCN(C(=O)c5nc(C)n[nH]5)CC4(C)C)cn3n2)cc1 [Compound I-334]
0.6 nM | 0.8 nM | > 1000 nM | > 1000 nM | Cc1cc(C(=O)N2CCN(C(=O)c3cn4nc(-c5ccc(C)c(F)c5)cc(C(C)C)c4n3)C(C)(C)C2)[nH]n1 [Compound I-335]
2.8 nM | 5 nM | > 1000 nM | > 1000 nM | Cc1ccc(-c2cc(C(C)C)c3nc(C(=O)N4CCN(C(=O)c5nc[nH]n5)CC4(C)C)cn3n2)cc1F [Compound I-336]
4.5 nM | 5.4 nM | > 1000 nM | > 1000 nM | Cc1nnc(C(=O)N2CCN(C(=O)c3cn4nc(-c5ccc(C)c(F)c5)cc(C(C)C)c4n3)C(C)(C)C2)o1 [Compound I-337]
1.6 nM | 2.2 nM | > 1000 nM | > 1000 nM | Cc1ccc(-c2cc(C(C)C)c3nc(C(=O)N4CCN(C(=O)C5CC(C)(O)C5)CC4(C)C)cn3n2)cc1F (stereo not drawn) [Compound I-338]
1.9 nM | 1.9 nM | > 1000 nM | > 1000 nM | Cc1n[nH]c(C(=O)N2CCN(C(=O)c3cn4nc(-c5ccc(C)c(F)c5)cc(C(C)C)c4n3)C(C)(C)C2)n1 [Compound I-339]
1.6 nM | 1.5 nM | > 1000 nM | > 1000 nM | Cc1c[nH]c(C(=O)N2CCN(C(=O)c3cn4nc(-c5ccc(F)cc5)cc(C(C)(C)C)c4n3)C(C)(C)C2)n1 [Compound I-340]
1.7 nM | 2.1 nM | > 1000 nM | > 1000 nM | Cc1cc(C(=O)N2CCN(C(=O)c3cn4nc(-c5ccc(F)c(C)c5)cc(C(C)C)c4n3)C(C)(C)C2)[nH]n1 [Compound I-341]
8.2 nM | 12.6 nM | > 1000 nM | > 1000 nM | Cc1cc(-c2cc(C(C)C)c3nc(C(=O)N4CCN(C(=O)c5nc[nH]n5)CC4(C)C)cn3n2)ccc1F [Compound I-342]
15.8 nM | 15.4 nM | > 1000 nM | > 1000 nM | Cc1nnc(C(=O)N2CCN(C(=O)c3cn4nc(-c5ccc(F)c(C)c5)cc(C(C)C)c4n3)C(C)(C)C2)o1 [Compound I-344]
6.2 nM | 5.6 nM | > 1000 nM | > 1000 nM | Cc1n[nH]c(C(=O)N2CCN(C(=O)c3cn4nc(-c5ccc(F)c(C)c5)cc(C(C)C)c4n3)C(C)(C)C2)n1 [Compound I-345]
2.3 nM | 2.9 nM | > 1000 nM | > 1000 nM | Cc1ccc(-c2cc(C(C)(C)C)c3nc(C(=O)N4CCNC(=O)C4(C)C)cn3n2)cc1 [Compound I-347]
5.1 nM | 4 nM | 673 nM | 360 nM | CC(C)(C)c1cc(-c2ccccc2)nn2cc(C(=O)N3CCNC(=O)C3(C)C)nc12 [Compound I-348]
2.6 nM | 3 nM | > 1000 nM | > 1000 nM | CC(C)(C)c1cc(-c2ccc(C(F)F)cc2)nn2cc(C(=O)N3CCNC(=O)C3(C)C)nc12 [Compound I-349]

IC50 [1] | IC50 [2] | IC50 [3] | IC50 [4] | Compound
13.7 nM | 12.9 nM | > 1000 nM | > 1000 nM | Cc1cccc(-c2cc(C(C)(C)C)c3nc(C(=O)N4CCNC(=O)C4(C)C)cn3n2)c1 [Compound I-350]
1.5 nM | 1.2 nM | > 1000 nM | > 1000 nM | CC(C)(C)c1cc(-c2ccc(F)c(F)c2)nn2cc(C(=O)N3CCNC(=O)C3(C)C)nc12 [Compound I-352]
3 nM | 2.4 nM | > 1000 nM | > 1000 nM | CC(C)c1cc(-c2ccc(Cl)cc2)nn2cc(C(=O)N3CCNC(=O)C3(C)C)nc12 [Compound I-353]
1.3 nM | 1.2 nM | > 1000 nM | > 1000 nM | CC(C)c1cc(-c2ccc(Cl)c(F)c2)nn2cc(C(=O)N3CCNC(=O)C3(C)C)nc12 [Compound I-354]
7 nM | 9.6 nM | > 1000 nM | > 1000 nM | Cc1cc(C(=O)N2CCN(C(=O)c3cn4nc(-c5ccc(F)cc5)cc(C(C)(F)F)c4n3)C(C)(C)C2)[nH]n1 [Compound I-355]
15 nM | 28 nM | > 1000 nM | > 1000 nM | CC(C)(C)c1cc(-c2ccc(F)cc2)nn2cc(C(=O)N3CCN(C(=O)c4ccn[nH]c4=O)CC3(C)C)nc12 [Compound I-356]
4.4 nM | 3.3 nM | > 1000 nM | 890 nM | CC(C)(C)c1cc(-c2ccc(F)cc2)nn2cc(C(=O)N3CCN(C(=O)c4n[nH]c(=O)[nH]4)CC3(C)C)nc12 [Compound I-357]
4.4 nM | 11.3 nM | > 1000 nM | > 1000 nM | CC(C)(C)c1cc(-c2ccc(C(F)(F)F)cc2)nn2cc(C(=O)N3CCN(c4c[nH]cn4)C(=O)C3(C)C)nc12 [Compound I-358]
1.1 nM | 1 nM | > 1000 nM | > 1000 nM | CC(C)(C)c1cc(-c2ccc(F)cc2)nn2cc(C(=O)N3CCN(c4cn[nH]n4)C(=O)C3(C)C)nc12 [Compound I-359]
3 nM | 4.6 nM | > 1000 nM | > 1000 nM | Cc1ccc(-c2cc(C(C)(C)C)c3nc(C(=O)N4CCN(c5c[nH]cn5)C(=O)C4(C)C)cn3n2)cc1F [Compound I-360]
2.2 nM | 2.7 nM | > 1000 nM | > 1000 nM | CC(C)(C)c1cc(-c2ccc(Cl)cc2)nn2cc(C(=O)N3CCNC(=O)C3(C)C)nc12 [Compound I-361]
31 nM | 13 nM | > 1000 nM | > 1000 nM | CC(C)(F)c1cc(-c2ccc(F)cc2)nn2cc(C(=O)N3CCNC(=O)C3(C)C)nc12 [Compound I-362]
2.8 nM | 5.4 nM | > 1000 nM | > 1000 nM | CC(C)c1cc(-c2ccc(F)c(Cl)c2)nn2cc(C(=O)N3CCNC(=O)C3(C)C)nc12 [Compound I-363]
1.7 nM | 1.5 nM | > 1000 nM | > 1000 nM | Cc1ccc(-c2cc(C(C)(C)C)c3nc(C(=O)N4CCN(c5cn[nH]c5)C(=O)C4(C)C)cn3n2)cc1 [Compound I-364]
1.5 nM | 1.1 nM | > 1000 nM | > 1000 nM | Cc1ccc(-c2cc(C(C)(C)C)c3nc(C(=O)N4CCN(c5cn[nH]c5)C(=O)C4(C)C)cn3n2)cc1F [Compound I-365]
4.2 nM | 2.6 nM | > 1000 nM | > 1000 nM | Cc1nc(N2CCN(C(=O)c3cn4nc(-c5ccc(F)cc5)cc(C(C)(C)C)c4n3)C(C)(C)C2=O)c[nH]1 [Compound I-367]
6.8 nM | 5.2 nM | > 1000 nM | > 1000 nM | Cc1ccc(-c2cc(C(C)(C)C)c3nc(C(=O)N4CCN(c5c[nH]c(C)n5)C(=O)C4(C)C)cn3n2)cc1 [Compound I-368]
7.3 nM | 5.4 nM | > 1000 nM | > 1000 nM | Cc1nc(N2CCN(C(=O)c3cn4nc(-c5ccc(C)c(F)c5)cc(C(C)(C)C)c4n3)C(C)(C)C2=O)c[nH]1 [Compound I-369]
10.4 nM | 7.7 nM | > 1000 nM | > 1000 nM | CC(C)c1cc(-c2ccc(C(F)(F)F)cc2)nn2cc(C(=O)N3CCN(C(=O)c4ncccn4)CC3(C)C)nc12 [Compound I-370]
